Assays:
[1] = Liver microsome stability; type: in vitro ADME, rat; conditions: amount of substrate remaining; compound 1 μM, 30 minutes, 37° C., NADPH
Summary of the method: (§1)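 Human, dog, rat and mouse liver microsomes (0.25 mg/mL) with 1 μM compound in 0.1 M phosphate buffer pH 7.4, preincubated 5 min at 37° C, then incubated 30 min at 37° C with NADPH-generating system. Reaction stopped with acetonitrile containing internal standard; remaining parent quantified by LC-MS/MS.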

tau protein = molecular target: T1, tau protein (Homo sapiens, UniProt P10636); experiment: Tau-BiFC cell model: inhibition of tau protein aggregation; type: cell-based; conditions: for remaining activity at 10 µM: 48 h, compound 10 μM, BiFC fluorescence, Forskolin-only group = 100% tau protein-aggregated state, read-out: Response (% @10 μM); for IC50: Tau BiFC in cells, with Forskolin 30 μM, 48 hours
T1 construct: fused on or other part: Split fluorescent-protein halves for BiFC are fused to tau; In the published tau-BiFC line these are Venus VN173 and VC155
Summary of the method: (§2)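 Aggregation was induced by 30 μM Forskolin co-applied with test compound for 48 h, with screening at 1, 3, 10 μM and dose-response at 0.03–30 μM. Nuclei were stained with Hoechst (2 μg/mL) and counted against Forskolin-only wells for cytotoxicity. Inhibition came from BiFC fluorescence relative to Forskolin-only versus untreated cells, with IC50 by nonlinear regression.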

[2] = Liver microsome stability; type: in vitro ADME, human; conditions: amount of substrate remaining; compound 1 μM, 30 minutes, 37° C., NADPH
Summary of the method: as §1

CYP2C9 = molecular target: T2, CYP2C9 (Homo sapiens, UniProt P11712); experiment: Inhibitory effect on CYP coenzyme activity, human liver microsomes; type: in vitro ADME; conditions: compound 10 μM; human liver microsomes 0.25 mg/mL; substrate diclofenac; 15 minutes
T2 construct: human liver microsomes (0.25 mg/mL); from tissue; host or cells: human liver microsomes
Protocol: (§3) The inhibitory effects of the compounds prepared according to Examples 1 to 175 on CYP coenzyme activity were identified. Specifically, human liver microsomes (0.25 mg/mL), a 0.1 M phosphate buffer solution (pH 7.4), a substrate drug cocktail of five types of drug metabolism enzymes (50 μM phenacetin, 10 μM diclofenac, 100 μM S-mephenytoin, 5 μM dextromethorphan, and 2.5 μM midazolam), and the compound at a concentration of 0 μM or 10 μM were mixed and pre-cultured at 37° C. for 5 minutes, and then further cultured at 37° C. for 15 minutes together with an NADPH generation system solution added thereto. Thereafter, the reaction was terminated by adding an acetonitrile solution containing an internal standard material (terfenadine) and centrifuged for 5 minutes (14,000 rpm, 4° C.), and then a supernatant was injected into an LC-MS/MS system for simultaneous analysis of metabolites of the substrate drugs to thereby evaluate the inhibitory effects on drug metabolism.
(§4) Metabolites of each CYP coenzyme indicator drug generated through the reaction were analyzed using the Shimadzu Nexera XR system and TSQ Vantage (Thermo). In an HPLC column, Kinetex C18 (2.1 mm×100 mm, 2.6 μm, particle size; Phenomenex, USA) was used, and mobile phases were (A) distilled water containing 0.1% formic acid and (B) acetonitrile containing 0.1% formic acid, and a gradient program shown in Table 3 was applied thereto.
(§5) The generated metabolites were quantified using a multiple reaction monitoring (MRM) quantification mode, and Xcalibur (version 1.6.1) was used for data analysis. Inhibitory effects of the novel compound prepared according to the examples of the present invention on CYP coenzyme activity are shown in Table 4 below.

CYP1A2 = molecular target: T3, CYP1A2 (Homo sapiens, UniProt P05177); experiment: as above; type: in vitro ADME; conditions: compound 10 μM; human liver microsomes 0.25 mg/mL; substrate phenacetin; 15 minutes
T3 construct: human liver microsomes (0.25 mg/mL); from tissue; host or cells: human liver microsomes
T3 sequence (P05177 1-516): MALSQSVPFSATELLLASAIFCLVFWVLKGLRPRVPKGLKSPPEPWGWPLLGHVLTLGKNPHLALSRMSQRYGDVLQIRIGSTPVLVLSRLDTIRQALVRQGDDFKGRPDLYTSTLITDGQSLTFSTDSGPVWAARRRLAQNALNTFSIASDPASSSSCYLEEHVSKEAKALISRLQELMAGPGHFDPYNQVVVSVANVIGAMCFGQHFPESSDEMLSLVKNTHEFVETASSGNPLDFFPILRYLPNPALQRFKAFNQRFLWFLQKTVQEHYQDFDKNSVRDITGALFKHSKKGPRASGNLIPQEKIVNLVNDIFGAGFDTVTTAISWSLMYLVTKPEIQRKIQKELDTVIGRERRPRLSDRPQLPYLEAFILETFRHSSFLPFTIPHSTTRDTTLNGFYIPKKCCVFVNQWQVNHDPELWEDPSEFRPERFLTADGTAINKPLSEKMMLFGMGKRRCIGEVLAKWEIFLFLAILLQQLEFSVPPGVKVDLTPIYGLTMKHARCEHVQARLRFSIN
Protocol: as §3, §4, §5

CYP2C19 = molecular target: T4, CYP2C19 (Homo sapiens, UniProt P33261); experiment: as above; type: in vitro ADME; conditions: compound 10 μM; human liver microsomes 0.25 mg/mL; substrate S-mephenytoin; 15 minutes
T4 construct: human liver microsomes (0.25 mg/mL); from tissue; host or cells: human liver microsomes
Protocol: as §3, §4, §5

CYP2D6 = molecular target: T5, CYP2D6 (Homo sapiens, UniProt P10635); experiment: as above; type: in vitro ADME; conditions: compound 10 μM; human liver microsomes 0.25 mg/mL; substrate dextromethorphan; 15 minutes
T5 construct: human liver microsomes (0.25 mg/mL); from tissue; host or cells: human liver microsomes
Protocol: as §3, §4, §5

CYP3A4 = molecular target: T6, CYP3A4 (Homo sapiens, UniProt P08684); experiment: as above; type: in vitro ADME; conditions: compound 10 μM; human liver microsomes 0.25 mg/mL; substrate midazolam; 15 minutes
T6 construct: human liver microsomes (0.25 mg/mL); from tissue; host or cells: human liver microsomes
Protocol: as §3, §4, §5

[3] = Liver microsome stability; type: in vitro ADME, mouse; conditions: amount of substrate remaining; compound 1 μM, 30 minutes, 37° C., NADPH
Summary of the method: as §1

[4] = Liver microsome stability; type: in vitro ADME, dog; conditions: amount of substrate remaining; compound 1 μM, 30 minutes, 37° C., NADPH
Protocol: The stability of liver microsomes due to the compounds prepared according to Examples 1 to 175 was confirmed. Specifically, four types of liver microsomes (human, dog, rat, and mouse, each 0.25 mg/mL), a 0.1 M phosphate buffer solution (pH 7.4), and each of the compounds at a concentration of 1 μM were mixed and pre-cultured at 37° C. for 5 minutes and further cultured at 37° C. for 30 minutes together with an NADPH generation system solution added thereto. Thereafter, the reaction was terminated by adding an acetonitrile solution containing an internal standard material (chloropropamide) and centrifuged for 5 minutes (14,000 rpm, 4° C.), and then a supernatant was injected into an LC-MS/MS system for analysis of substrate drugs to thereby evaluate metabolic stability due to 8 types of compounds.
The amount of the substrate remaining after the reaction was analyzed using the Shimadzu Nexera XR system and TSQ Vantage (Thermo). In an HPLC column, Kinetex XB-C18 (2.1 mm×100 mm, particle size of 2.6 μm; Phenomenex, USA) was used, and mobile phases were (A) distilled water containing 0.1% formic acid and (B) acetonitrile containing 0.1% formic acid. Analyst software (version 1.6.3) and Xcalibur (version 1.6.1) were used for data analysis.

Tau-BiFC cells = experiment: Cell viability (cytotoxicity) in tau-BiFC cells, count of stained nuclei; type: cell-based; conditions: compound 10 μM; Forskolin-only group = 100% cell viability
Summary of the method: as §2

T2 sequence (P11712 whole entry): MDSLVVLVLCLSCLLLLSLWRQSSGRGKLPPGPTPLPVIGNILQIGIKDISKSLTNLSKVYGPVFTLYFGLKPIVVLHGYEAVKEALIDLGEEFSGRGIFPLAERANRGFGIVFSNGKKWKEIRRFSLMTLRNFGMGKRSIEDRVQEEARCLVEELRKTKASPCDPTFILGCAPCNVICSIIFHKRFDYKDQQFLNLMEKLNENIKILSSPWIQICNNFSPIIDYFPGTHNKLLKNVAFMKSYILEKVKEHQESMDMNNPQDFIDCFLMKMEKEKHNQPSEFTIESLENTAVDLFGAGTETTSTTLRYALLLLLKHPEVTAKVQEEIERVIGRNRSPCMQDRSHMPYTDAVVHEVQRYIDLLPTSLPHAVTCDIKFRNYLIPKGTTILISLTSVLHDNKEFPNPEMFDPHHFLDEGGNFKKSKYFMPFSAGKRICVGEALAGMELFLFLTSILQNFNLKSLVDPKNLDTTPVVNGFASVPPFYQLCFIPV
T5 sequence (P10635 whole entry): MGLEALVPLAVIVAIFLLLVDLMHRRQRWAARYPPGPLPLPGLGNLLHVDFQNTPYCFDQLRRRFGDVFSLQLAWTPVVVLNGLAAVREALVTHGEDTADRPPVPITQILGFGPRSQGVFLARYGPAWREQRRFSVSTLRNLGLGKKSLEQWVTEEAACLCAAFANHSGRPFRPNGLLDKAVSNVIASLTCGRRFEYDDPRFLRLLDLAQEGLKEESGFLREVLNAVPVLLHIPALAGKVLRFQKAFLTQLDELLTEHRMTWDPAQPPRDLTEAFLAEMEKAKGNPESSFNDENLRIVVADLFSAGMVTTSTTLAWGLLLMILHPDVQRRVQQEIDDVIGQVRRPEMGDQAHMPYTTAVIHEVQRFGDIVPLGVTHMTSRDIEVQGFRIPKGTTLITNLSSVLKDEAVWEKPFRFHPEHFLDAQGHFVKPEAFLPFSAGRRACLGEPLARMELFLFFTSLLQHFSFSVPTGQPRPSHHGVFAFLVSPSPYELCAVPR
T4 sequence (P33261 whole entry): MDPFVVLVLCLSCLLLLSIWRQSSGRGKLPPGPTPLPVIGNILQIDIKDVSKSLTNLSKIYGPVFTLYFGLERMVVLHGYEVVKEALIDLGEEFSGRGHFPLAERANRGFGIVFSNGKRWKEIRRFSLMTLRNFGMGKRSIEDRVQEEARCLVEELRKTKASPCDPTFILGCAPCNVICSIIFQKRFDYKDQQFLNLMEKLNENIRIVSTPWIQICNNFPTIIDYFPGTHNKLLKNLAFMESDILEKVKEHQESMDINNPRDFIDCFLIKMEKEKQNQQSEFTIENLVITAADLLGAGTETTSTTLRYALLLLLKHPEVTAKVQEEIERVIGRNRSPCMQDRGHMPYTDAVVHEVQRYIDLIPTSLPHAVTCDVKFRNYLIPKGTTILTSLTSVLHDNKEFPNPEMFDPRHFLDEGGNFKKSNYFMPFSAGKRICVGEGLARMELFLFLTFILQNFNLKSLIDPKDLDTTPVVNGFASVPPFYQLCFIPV
T6 sequence (P08684 whole entry): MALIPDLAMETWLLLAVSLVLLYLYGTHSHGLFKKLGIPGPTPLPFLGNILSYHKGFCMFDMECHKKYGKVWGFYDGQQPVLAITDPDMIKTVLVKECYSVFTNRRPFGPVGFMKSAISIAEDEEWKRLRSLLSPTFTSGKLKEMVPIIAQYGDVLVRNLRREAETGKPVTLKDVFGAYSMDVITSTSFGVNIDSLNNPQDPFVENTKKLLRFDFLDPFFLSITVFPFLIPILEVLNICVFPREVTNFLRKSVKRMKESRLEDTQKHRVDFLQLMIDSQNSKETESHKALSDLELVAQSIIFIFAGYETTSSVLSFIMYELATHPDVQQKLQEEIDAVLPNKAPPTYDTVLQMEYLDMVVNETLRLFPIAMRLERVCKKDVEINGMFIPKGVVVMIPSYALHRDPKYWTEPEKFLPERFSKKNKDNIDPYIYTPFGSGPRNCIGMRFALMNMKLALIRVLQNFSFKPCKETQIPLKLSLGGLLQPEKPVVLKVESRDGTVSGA
T1 sequence (P10636 2-441 isoform P10636-8 limits assumed): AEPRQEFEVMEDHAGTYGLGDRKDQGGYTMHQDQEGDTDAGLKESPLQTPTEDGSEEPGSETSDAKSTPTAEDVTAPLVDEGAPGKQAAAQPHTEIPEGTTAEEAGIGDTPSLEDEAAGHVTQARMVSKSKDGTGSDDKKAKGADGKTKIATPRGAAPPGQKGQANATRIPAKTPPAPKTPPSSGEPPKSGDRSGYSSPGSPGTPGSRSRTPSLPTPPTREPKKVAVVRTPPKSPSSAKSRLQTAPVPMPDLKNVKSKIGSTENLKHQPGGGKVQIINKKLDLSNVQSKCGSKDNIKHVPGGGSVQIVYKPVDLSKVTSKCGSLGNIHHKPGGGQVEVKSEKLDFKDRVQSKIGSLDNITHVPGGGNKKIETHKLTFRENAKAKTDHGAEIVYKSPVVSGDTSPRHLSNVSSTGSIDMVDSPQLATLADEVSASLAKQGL

Structure (SMILES)	Rat (%) [1] [%]	remaining activity at 10 µM (tau protein) [%]	IC50 (tau protein) [nM]	Human (%) [2] [%]	CYP2C9 (CYP2C9)	CYP1A2 (CYP1A2)	CYP2C19 (CYP2C19)	CYP2D6 (CYP2D6)	CYP3A4 (CYP3A4)	Mouse (%) [3] [%]	Dog (%) [4] [%]	Cell viability (% @10 μM) (Tau-BiFC cells) [%]
Cc1cnc(C(=O)Nc2ccc(NN=C(C#N)C#N)cn2)cn1 [Compound 1, (6-(5-methylpyrazine-2-carboxamido)pyridin-3-yl)carbonohydrazonoyl dicyanide]	56.7	0	400	86.5	71.1	80.7	74.6	93.1	85	21.2	66.9	94.3
Cc1cnc(C(=O)Nc2ccc(NN=C(C#N)C#N)c(F)c2)cn1 [Compound 3, (2-fluoro-4-(5-methylpyrazine-2-carboxamido)phenyl)carbonohydrazonoyl dicyanide]	72.6	0	30	95.7	61.9	85.6	78.2	83.6	80.8	46.1	75.4	62.1
Cc1cnc(C(=O)Nc2ccc(NN=C(C#N)C#N)c(C)c2)cn1 [Compound 6, (2-methyl-4-(5-methylpyrazine-2-carboxamido)phenyl)carbonohydrazonoyl dicyanide]	88.4	43.9	–	77.5	38	85.2	64.8	75.7	62.2	74.8	>100	61.3
N#CC(C#N)=NNc1ccc(NC(=O)c2ccc(F)cc2)nc1 [Compound 16, (6-(4-fluorobenzamido)pyridin-3-yl)carbonohydrazonoyl dicyanide]	61	0	110	91.6	40.3	71.4	78.6	80.8	86.9	67.3	59.5	66.2
Cc1cc(F)cc(C(=O)Nc2ccc(NN=C(C#N)C#N)cn2)c1 [Compound 19, (6-(3-fluoro-5-methylbenzamido)pyridin-3-yl)carbonohydrazonoyl dicyanide]	51.4	0	270	84.8	14.6	55.1	73.1	73	76.5	62.3	78.8	119.1
Cc1cccc(C(=O)Nc2ccc(NN=C(C#N)C#N)cn2)c1F [Compound 20, (6-(2-fluoro-3-methylbenzamido)pyridin-3-yl)carbonohydrazonoyl dicyanide]	33.7	0	180	91.9	22.3	69.4	72	75.8	76.1	68.3	>100	110.4
N#CC(C#N)=NNc1ccc(NC(=O)c2ccc(C(F)(F)F)cc2)nc1 [Compound 27, (6-(4-(trifluoromethyl)benzamido)pyridin-3-yl)carbonohydrazonoyl dicyanide]	8.8	0	370	86.9	23.7	76.8	78.3	76	>100	5.4	3.6	122
N#CC(C#N)=NNc1ccc(NC(=O)c2cccs2)nc1 [Compound 30, (6-(thiophene-2-carboxamido)pyridin-3-yl)carbonohydrazonoyl dicyanide]	72.4	0	80	94.8	62.9	83.9	81.5	89.9	95.2	70.7	84.7	145
Cc1ccc(NC(=O)c2ccc(NN=C(C#N)C#N)cn2)cn1 [Compound 38, (6-(6-methylpyridin-3-ylcarbamoyl)pyridin-3-yl)carbonohydrazonoyl dicyanide]	>100	0	990	99.1	49.1	92.5	83.0	>100	92.4	96.4	98.8	110.6
Cc1cnc(NC(=O)c2ccc(NN=C(C#N)C#N)cc2)cn1 [Compound 45, (4-(5-methylpyrazin-2-ylcarbamoyl)phenyl)carbonohydrazonoyl dicyanide]	>100	0	1180	96.8	80.8	95.5	83.4	>100	96.7	>100	>100	140.5

From patent US12649723B2, “Carbonohydrazonoyl dicyanide compounds comprising 2 or more aryl or heteroaryl connected via linker and use thereof” (KOREA INSTITUTE OF SCIENCE AND TECHNOLOGY, priority 2020, dated 2026)
